The values that follow come from PubChem BioAssay AID1117347 (Cheminformatics & Chemogenomics Research Group (CCRG), …, 2015).

Active and inactive are the calls of the source. The rule behind the calls is not given here.

The test system of this test is HeLa cell count decrease. The experiment in a line: decrease in HeLa cell numbers, dose-response curve, cell enumeration, 50% inhibitory concentration (AID 1117347).
For the compound `CC[C@H]1CN2CCc3cc(OC)c(OC)cc3[C@@H]2C[C@@H]1C[C@H]1NCCc2cc(OC)c(OC)cc21`, the concentration for half-maximal inhibition (IC50) is 32.7 nM.

In the case of `COC(=O)c1nc(Cl)c(Cl)nc1N`, the IC50 is 408 nM.

`Cn1cnc([N+](=O)[O-])c1Sc1ncnc2nc[nH]c12`: the IC50 is > 10000 nM (inactive).

`COC(=O)Nc1nc2ccc(C(=O)C3CC3)cc2[nH]1`: the IC50 is 297 nM.

With `CC(C)(C)C(=O)OCOP(=O)(COCCn1cnc2c(N)ncnc21)OCOC(=O)C(C)(C)C`, the concentration for half-maximal inhibition (IC50) is 134 nM.

For the compound `CCCCCCCCCCCCCCCC[n+]1ccccc1`, the IC50 is 404 nM.

With `CCc1nc(N)nc(N)c1-c1ccc(Cl)cc1`, the IC50 was > 10000 nM (inactive).

For the compound `Cc1nc2ccccc2n1Cc1ccc(Cl)cc1`, the IC50 is 31.8 nM.

As to `COc1ccc(-c2nc3ccc(C4=NNC(=O)CC4C)cc3[nH]2)cc1` (stereo not given), the IC50 is 7230 nM (inactive).

As for `Fc1ccc(C(OCCN2CCN(CCCc3ccccc3)CC2)c2ccc(F)cc2)cc1`, the IC50 is 3200 nM.

For the compound `Cc1cc(N)c2ccccc2[n+]1CCCCCCCCCC[n+]1c(C)cc(N)c2ccccc21`, the IC50 was > 10000 nM (inactive).

On to `CCC(COC(=O)c1cc(OC)c(OC)c(OC)c1)(c1ccccc1)N(C)C` (stereo not given), for which the IC50 is > 10000 nM (inactive).

For the compound `O=[N+]([O-])c1ccc(O)c2ncccc12`, the IC50 is 295 nM.

As for `Cc1cc(=O)c2c(O)c3c(O)cc(=O)c4c3c3c(cc(O)c1c23)C(C)(C)C=4O`, the IC50 was 1000 nM.

Turning to `Nc1nc(=O)n([C@@H]2O[C@H](CO)[C@@H](O)[C@@H]2F)cc1I`, the IC50 was 8500 nM (inactive).

Regarding `COc1cc(NCc2ccc3nc(N)nc(N)c3c2C)cc(OC)c1OC`, the half-maximal inhibitory concentration (IC50) was 3810 nM.

In the case of `O=C(O)c1ccc(-n2nc(-c3ccccc3O)nc2-c2ccccc2O)cc1`, the IC50 was 5680 nM (inactive).

For the compound `CCc1oc2ccccc2c1C(=O)c1cc(Br)c(O)c(Br)c1`, the IC50 was > 10000 nM (inactive).

For `CCN(CC)CCOc1ccc(/C(=C(\Cl)c2ccccc2)c2ccccc2)cc1`, the IC50 was > 10000 nM (inactive).

For the compound `CCN(CCCCOC(=O)c1ccc(OC)c(OC)c1)C(C)Cc1ccc(OC)cc1` (stereo not given), the IC50 was > 10000 nM (inactive).

In the case of `O=Cc1ccc(O)c(O)c1O`, the IC50 was > 10000 nM (inactive).

Take `CN(C)c1ccc2nc3ccc(=[N+](C)C)cc-3sc2c1`: the IC50 was > 10000 nM (inactive).

For `CCCCCCCCCCOCC(O)CN` (stereo not given), the IC50 is > 10000 nM (inactive).

With `COc1cccc2c1C(=O)c1c(O)c3c(c(O)c1C2=O)C[C@@](O)(C(=O)CO)C[C@@H]3O[C@H]1C[C@H](N)[C@H](O[C@@H]2CCCCO2)[C@H](C)O1`, the concentration for half-maximal inhibition (IC50) was 51.4 nM.

`Cc1ccc2c(c1)c1c3n2CCNC3CCC1` (stereo not given): the IC50 is > 10000 nM (inactive).

Consider `Cc1nc(Nc2ncc(C(=O)Nc3c(C)cccc3Cl)s2)cc(N2CCN(CCO)CC2)n1`, for which the half-inhibitory concentration (IC50) was 875 nM.

In the case of `Cc1ccccc1C(=O)Nc1ccc(C(=O)N2CCCC(N(C)C)c3ccccc32)cc1` (stereo not given), the half-maximal inhibitory concentration (IC50) is 2910 nM.

With `O=C(O)CCc1nc2ccccc2[nH]1`, the IC50 is > 10000 nM (inactive).

For the compound `O=C(c1cc(O)c(O)c(O)c1)c1ccc(O)c(O)c1O`, the IC50 was > 10000 nM (inactive).

As for `O=C(NOCC1CC1)c1ccc(F)c(F)c1Nc1ccc(I)cc1Cl`, the IC50 is > 10000 nM (inactive).

As for `CCN(CC)CCOc1ccccc1C(=O)CCc1ccccc1`, the IC50 was > 10000 nM (inactive).

For the compound `Clc1ccccc1C(c1ccccc1)(c1ccccc1)n1ccnc1`, the IC50 is > 10000 nM (inactive).

Consider `COC(=O)Nc1nc2ccc(C(=O)c3ccccc3)cc2[nH]1`, for which the IC50 was 54.2 nM.

Consider `Cc1ccc(S(=O)(=O)NC(=O)NN2CC3CCCC3C2)cc1` (stereo not given), for which the IC50 was > 10000 nM (inactive).

For `CC(=O)Oc1ccccc1C(=O)Nc1ncc([N+](=O)[O-])s1`, the IC50 was > 10000 nM (inactive).

Regarding `Cc1nc(N)nc(N)c1-c1ccc(Cl)c(Cl)c1`, the IC50 was 1010 nM.

Regarding `Nc1ccc2cc3ccc(N)cc3nc2c1`, the half-inhibitory concentration (IC50) is 1340 nM.

Consider `O=c1[nH]c(=O)n([C@H]2C[C@H](O)[C@@H](CO)O2)cc1I`, for which the IC50 was > 10000 nM (inactive).

As to `CCC(C)(C)C(=O)O[C@H]1C[C@@H](C)C=C2C=C[C@H](C)[C@H](CC[C@@H]3C[C@@H](O)CC(=O)O3)[C@H]21`, the IC50 is > 10000 nM (inactive).

In the case of `CCN(CC)CCOc1ccc(C(O)(Cc2ccc(Cl)cc2)c2ccc(C)cc2)cc1` (stereo not given), the IC50 was > 10000 nM (inactive).

With `CSc1ccc2c(c1)C(N1CCN(C)CC1)Cc1ccccc1S2` (stereo not given), the IC50 is > 10000 nM (inactive).

As for `COc1ccc2cc1Oc1ccc(cc1)C[C@H]1c3c(cc4c(c3Oc3cc5c(cc3OC)CCN(C)[C@@H]5C2)OCO4)CCN1C`, the IC50 was 5540 nM (inactive).

For `Oc1c(Cl)cc(Cl)cc1Sc1cc(Cl)cc(Cl)c1O`, the IC50 is > 10000 nM (inactive).

For `O=C1c2c(O)ccc(O)c2C(=O)c2c(NCCNCCO)ccc(NCCNCCO)c21`, the IC50 was 3.1 nM.

For the compound `CCCOc1ccc2nc(NC(=O)OC)[nH]c2c1`, the 50% inhibitory concentration (IC50) was 46.7 nM.

In the case of `NCCNc1ccc(NCCN)c2c1C(=O)c1ccncc1C2=O`, the IC50 was 42.1 nM.

As for `COc1cccc2c1C(=O)c1c(O)c3c(c(O)c1C2=O)C[C@@](O)(C(=O)CO)CC3OC1CC(N2CCOC(OC)C2)C(O)C(C)O1` (stereo not given in full), the IC50 was 4.68 nM.

As to `CCN(CC)CCNC(=O)c1c(C)[nH]c(/C=C2\C(=O)Nc3ccc(F)cc32)c1C`, the half-maximal inhibitory concentration (IC50) is 1280 nM.

Consider `CCN1/C(=C/C=C/c2sc3ccccc3[n+]2CC)Sc2ccccc21`, for which the 50% inhibitory concentration (IC50) is 36 nM.

As to `CCCCC1C(=O)N(c2ccccc2)N(c2ccc(O)cc2)C1=O` (stereo not given), the IC50 is 1660 nM.

In the case of `CC[n+]1c(-c2ccccc2)c2cc(N)ccc2c2ccc(N)cc21`, the IC50 is > 10000 nM (inactive).

Take `O[C@@H](CNC[C@H](O)[C@H]1CCc2cc(F)ccc2O1)[C@@H]1CCc2cc(F)ccc2O1`: the IC50 was 5560 nM (inactive).

On to `CO[C@@H]1[C@@H](OC)[C@H](C)[C@@](O)(CC(=O)O)O[C@H]1[C@H](C)[C@H]1O[C@@]2(CC[C@@](C)([C@H]3CC[C@@](C)([C@@H]4O[C@@H]([C@H]5O[C@](C)(O)[C@H](C)C[C@@H]5C)C[C@@H]4OC4C[C@H](OC)[C@@H](OC)[C@H](C)O4)O3)O2)C[C@H](O)[C@H]1C` (stereo not given in full), for which the IC50 is 2750 nM.

`Cc1ccccc1C(OCCN(C)C)c1ccccc1` (stereo not given): the IC50 was > 10000 nM (inactive).

As to `CC(C)(C)C1CCC(CC2=C(O)c3ccccc3C(=O)C2=O)CC1` (stereo not given), the IC50 was > 10000 nM (inactive).

In the case of `Cc1cc(C2CCCCC2)n(O)c(=O)c1`, the IC50 was 569 nM.

As for `CC(C)=CCC/C(C)=C/CC/C(C)=C/C(=O)OCC(=O)[C@@]1(O)CC[C@H]2[C@@H]3CCC4=CC(=O)C=C[C@]4(C)[C@H]3[C@@H](O)C[C@@]21C`, the half-maximal inhibitory concentration (IC50) is 59.5 nM.

Consider `Oc1c(I)cc(I)c2cccnc12`, for which the IC50 is > 10000 nM (inactive).

Regarding `O=C1C(I)=CC(=C(c2cc(I)c(O)c(I)c2)c2ccccc2C(=O)O)C=C1I`, the IC50 is > 10000 nM (inactive).

As to `O=c1c(-c2ccccc2)c1-c1ccccc1`, the IC50 was 1690 nM.

`CC[C@]1(O)C[C@H]2CN(CCc3c([nH]c4ccccc34)[C@@](C(=O)OC)(c3cc4c(cc3OC)N(C=O)[C@H]3[C@@](O)(C(=O)OC)[C@H](OC(C)=O)[C@]5(CC)C=CCN6CC[C@]43[C@@H]65)C2)C1`: the half-maximal inhibitory concentration (IC50) is 6.5 nM.

On to `CCN(CC)CCNc1ccc(CO)c2sc3ccccc3c(=O)c12`, for which the IC50 is 5920 nM (inactive).

Consider `CC(C)c1c(C(=O)Nc2ccccc2)c(-c2ccccc2)c(-c2ccc(F)cc2)n1CC[C@@H](O)C[C@@H](O)CC(=O)O`, for which the IC50 was > 10000 nM (inactive).

For the compound `Cc1cc2c(C(C)C)c(O)c(O)c(C=O)c2c(O)c1-c1c(C)cc2c(C(C)C)c(O)c(O)c(C=O)c2c1O`, the 50% inhibitory concentration (IC50) was 3710 nM.

As for `CC(=O)Nc1ccn(C2COC(COC(=O)c3ccccc3)O2)c(=O)n1` (stereo not given), the half-maximal inhibitory concentration (IC50) is 281 nM.

As for `O=c1[nH]cc(F)c(=O)[nH]1`, the IC50 was > 10000 nM (inactive).

As to `O=C1[C@H]2CCCC[C@H]2C(=O)N1CCCCN1CCN(c2nsc3ccccc23)CC1`, the IC50 is > 10000 nM (inactive).

With `CC(C)n1c(/C=C/[C@@H](O)C[C@@H](O)CC(=O)O)c(-c2ccc(F)cc2)c2ccccc21`, the IC50 was > 10000 nM (inactive).

Turning to `CCCN(CCC)C(=O)C(CCC(=O)OCCCN1CCN(CCOC(=O)Cc2c(C)n(C(=O)c3ccc(Cl)cc3)c3ccc(OC)cc23)CC1)NC(=O)c1ccccc1` (stereo not given), the IC50 is 5480 nM (inactive).

Turning to `COC(=O)Nc1nc2ccc(Sc3ccccc3)cc2[nH]1`, the IC50 was 9.7 nM.

For `CCN(CC)CCCC(C)Nc1c2ccc(Cl)cc2nc2ccc(OC)cc12` (stereo not given), the half-inhibitory concentration (IC50) is 1330 nM.

Consider `COc1c(C)c2c(c(O)c1C/C=C(\C)CCC(=O)OCCN1CCOCC1)C(=O)OC2`, for which the IC50 is > 10000 nM (inactive).

`C1CN(P2(N3CC3)=NP(N3CC3)(N3CC3)=NP(N3CC3)(N3CC3)=N2)CCO1` (stereo not given): the IC50 is > 10000 nM (inactive).

For the compound `Nc1nc(Cl)nc2c1ncn2[C@@H]1O[C@H](CO)[C@@H](O)[C@@H]1F`, the 50% inhibitory concentration (IC50) was 5.16 nM.

On to `Cc1ccc(Nc2nccc(N(C)c3ccc4c(C)n(C)nc4c3)n2)cc1S(N)(=O)=O`, for which the IC50 is > 10000 nM (inactive).

As for `C[C@@H](O[C@H]1OCCN(Cc2n[nH]c(=O)[nH]2)[C@H]1c1ccc(F)cc1)c1cc(C(F)(F)F)cc(C(F)(F)F)c1`, the IC50 is > 10000 nM (inactive).

As for `CC[C@@]1(O)C(=O)OCc2c1cc1n(c2=O)Cc2c-1nc1ccccc1c2/C=N/OC(C)(C)C`, the half-inhibitory concentration (IC50) was 2.2 nM.

Consider `CCC(=O)c1ccc(O)cc1`, for which the IC50 was > 10000 nM (inactive).

Turning to `S=c1nc[nH]c2nc[nH]c12`, the IC50 was > 10000 nM (inactive).

For the compound `CCC(C)n1ncn(-c2ccc(N3CCN(c4ccc(OC[C@H]5CO[C@](Cn6cncn6)(c6ccc(Cl)cc6Cl)O5)cc4)CC3)cc2)c1=O` (stereo not given in full), the IC50 was > 10000 nM (inactive).

Take `CN(C)CCC=C1c2ccccc2CCc2ccccc21`: the IC50 is > 10000 nM (inactive).

For `Cc1cc(O)c2ccccc2c1O`, the 50% inhibitory concentration (IC50) is 2460 nM.

As to `C[n+]1c2cc(N)ccc2cc2ccc(N)cc21` (tested in a mixture with another compound), the IC50 was 472 nM.

Turning to `O=[N+]([O-])c1ccc(Oc2ccc(N=C=S)cc2)cc1`, the IC50 is > 10000 nM (inactive).

As for `C=C(C)[C@H]1Cc2c(ccc3c2O[C@@H]2COc4cc(OC)c(OC)cc4[C@@H]2C3=O)O1`, the IC50 was 153 nM.
